Earlier results on one compound are cited in patent US20070286875A1 (Morton Grove Pharmaceuticals, Inc., priority 2006, published 2007).

The structures appear in SMILES notation.

The conditions of series [1]: 10 mg once daily with erythromycin, cimetidine, ketoconazole.

As to `CCOC(=O)N1CCC(=C2c3ccc(Cl)cc3CCc3cccnc32)CC1` [loratadine, ethyl 4-(8-chloro-5,6-dihydro-11H-benzo[5,6]cyclohepta[1,2-b]pyridin-11-ylidene)-1-piperidinecarboxylate], in the series on H1-receptors, the “binding to peripheral versus central nervous system H1-receptors” value is “preferential binding to peripheral”. The “changes in safety profile on co-administration” value in series [1] is recorded as “no clinically relevant changes”.
